Biological target: full-length PI3Kα (full-length p110α/p85α) (Homo sapiens (Human), UniProt P42336)
Assay: PI3KA_FL fluorescence polarization kinase assay (Ki)
Assay type: biochemical
Details: 41 μM ATP
Source text: Enzyme Production for Biochemical Assays: 1) PI3Kα Complex (Full Length p110α and p85α)(“PI3KA_FL”)
Genes encoding for full length p110α and p85α subunits of PI3Kα complex were subcloned from existing constructs into pFASTBAC Dual vector (Life Technologies, Carlsbad, Calif.) using standard cloning procedures. Gene encoding p110α subunit was subcloned into polyhedrine promoter while gene encoding p85α subunit was subcloned into p10 promoter. Additionally, sequence encoding for histidine tag and Tobacco Etch Virus (“TEV”) cleavage site preceded p110α ORF (Open Reading Frame). Recombinant baculovirus was generated using Bac-to-Bac protocol (Life Technologies, Carlsbad, Calif.) and large scale expression was conducted in Sf21 (Life Technologies, Carlsbad, Calif.) cells at a multiplicity of infection (“MOI”)=1 for 72 hours. Cells were lyzed in 50 mM Tris pH 8.0, 250 mM NaCl, 5% glycerol, 0.25 mM TCEP, and 20 mM imidazole. The PI3Kα complex was purified from clarified supernatant using Immobilized Metalo Affinity Chromatography (“IMAC”). The protein was eluted from the column using 50 mM Tris pH 8.0, 200 mM NaCl, 5% glycerol, 0.25 mM TCEP, and 200 mM imidazole, and further desalted into 50 mM Tris pH 8.0, 20 mM NaCl, and 0.25 mM TCEP prior to loading on MonoQ sepharose (GE Healthcare, Piscataway, N.J.). PI3Kα complex was eluted from MonoQ sepharose over 20 column volumes using 0-30% gradient of buffer B (50 mM Tris pH 8.0, 1 M NaCl, and 0.25 mM TCEP). The peak fractions were pulled together and loaded on Superdex 200 26/60 SEC column equilibrated in 50 mM Tris pH 8.0, 200 mM NaCl, and 0.5 mM TCEP. […] Purity and integrity of the complex was confirmed using LCMS, analytical SEC and SDS-PAGE (sodium dodecyl sulfate polyacrylamide gel electrophoresis) analysis.
The biochemical assays of kinase activity of full-length PI3Kα (full-length p110α/p85a) or truncated PI3Kα (p110α/iSH2 p85a) were conducted using a fluorescence polarization format similar to the procedure of Yuan J., et al., (2011) “PF-04691502, a Potent and Selective Oral Inhibitor of PI3K and mTOR Kinases with Antitumor Activity”, Mol Cancer Ther. 10, 2189-2199. The enzymatic reactions were conducted in 50 μL volumes in 96-well plates. The reactions contained human recombinant PI3Kα (2 nM full-length p110α/p85α or 0.5 nM p110α/iSH2 p85) and 30 μM phosphatidylinositol 4,5-bisphosphate (“PIP2”) (Cayman Chemical Company, Ann Arbor, Mich.) and were sonicated for 1 minute prior to adding PI3Kα enzyme (PI3KA_Act or PI3KA_FL), DMSO or test compound (12-point 3-fold serial dilution, 3 μM top dose, 2° A) DMSO final concentration), 5 mM MgCl2, 50 mM HEPES pH 7.4, 150 mM NaCl, 1 mM DTT ((2S,3S)-1,4-bis(sulfanyl)butane-2,3-diol), and 0.05% 3-[(3-cholamidopropyl)dimethylammonio]-1-propanesulfonate (“CHAPS”). […] The reactions were incubated for 30 min at room temperature, stopped with EDTA pH 8 (10 mM final concentration). In a detection plate, 15 μL of detector/probe mixture, containing 480 nM GST-Grp1 PH domain protein (University of Dundee, Dundee, UK) and 12 nM carboxytetramethylrhodamine (“TAMRA”)-tagged fluorescent phosphatidylinositol (3,4,5)-triphosphate (“PIP3”) (Echelon Biosciences, Inc., Salt Lake City, Utah) in assay buffer, was mixed with 15 μL of kinase reaction mixture. The plate was shaken for 30 minutes and fluorescence polarization values were measured on an LJL Analyst HT plate reader (Molecular Devices, Sunnyvale, Calif.). […] The inhibition constants (Ki) were calculated by fitting fluorescence polarization values, corresponding to initial reaction rates, to the Morrison equation (Morrison, J. F. (1969) Kinetics of the reversible inhibition of enzyme catalysed reactions by tight-binding inhibitors. Biochim. Biophys. Acta 185, 269-286) for tight-binding competitive inhibitors using non-linear regression method (GraphPad Prism, GraphPad Software, San Diego, Calif.).

full-length PI3Kα (full-length p110α/p85α), sequence (P42336 whole entry): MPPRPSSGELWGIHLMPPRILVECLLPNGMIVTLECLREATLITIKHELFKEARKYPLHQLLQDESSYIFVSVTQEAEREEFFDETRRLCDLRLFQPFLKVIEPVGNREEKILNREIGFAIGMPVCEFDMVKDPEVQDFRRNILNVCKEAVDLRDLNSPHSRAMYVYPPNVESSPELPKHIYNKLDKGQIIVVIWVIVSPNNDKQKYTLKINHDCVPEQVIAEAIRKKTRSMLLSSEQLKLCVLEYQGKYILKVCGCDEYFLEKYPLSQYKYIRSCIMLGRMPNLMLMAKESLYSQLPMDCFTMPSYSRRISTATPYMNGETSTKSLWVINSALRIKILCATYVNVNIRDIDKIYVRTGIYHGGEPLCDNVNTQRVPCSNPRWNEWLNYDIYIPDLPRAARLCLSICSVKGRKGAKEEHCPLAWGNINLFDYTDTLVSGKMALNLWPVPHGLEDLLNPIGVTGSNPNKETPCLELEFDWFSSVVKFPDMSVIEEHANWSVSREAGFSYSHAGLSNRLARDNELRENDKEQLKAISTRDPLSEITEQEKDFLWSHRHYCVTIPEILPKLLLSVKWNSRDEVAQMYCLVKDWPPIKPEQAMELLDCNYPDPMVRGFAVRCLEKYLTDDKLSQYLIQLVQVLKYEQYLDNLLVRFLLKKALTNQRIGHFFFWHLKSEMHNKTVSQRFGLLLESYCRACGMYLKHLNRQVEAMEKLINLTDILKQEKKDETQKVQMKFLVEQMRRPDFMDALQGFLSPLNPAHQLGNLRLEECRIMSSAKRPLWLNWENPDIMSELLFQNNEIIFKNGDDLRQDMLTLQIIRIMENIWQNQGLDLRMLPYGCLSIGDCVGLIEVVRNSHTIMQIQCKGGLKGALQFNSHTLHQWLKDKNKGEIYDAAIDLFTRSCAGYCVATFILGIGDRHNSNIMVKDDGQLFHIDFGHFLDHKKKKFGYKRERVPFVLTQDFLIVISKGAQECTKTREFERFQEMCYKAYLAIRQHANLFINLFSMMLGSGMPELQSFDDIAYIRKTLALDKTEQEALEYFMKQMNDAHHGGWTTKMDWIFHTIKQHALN
full-length PI3Kα (full-length p110α/p85α), sequence (P27986 whole entry partner): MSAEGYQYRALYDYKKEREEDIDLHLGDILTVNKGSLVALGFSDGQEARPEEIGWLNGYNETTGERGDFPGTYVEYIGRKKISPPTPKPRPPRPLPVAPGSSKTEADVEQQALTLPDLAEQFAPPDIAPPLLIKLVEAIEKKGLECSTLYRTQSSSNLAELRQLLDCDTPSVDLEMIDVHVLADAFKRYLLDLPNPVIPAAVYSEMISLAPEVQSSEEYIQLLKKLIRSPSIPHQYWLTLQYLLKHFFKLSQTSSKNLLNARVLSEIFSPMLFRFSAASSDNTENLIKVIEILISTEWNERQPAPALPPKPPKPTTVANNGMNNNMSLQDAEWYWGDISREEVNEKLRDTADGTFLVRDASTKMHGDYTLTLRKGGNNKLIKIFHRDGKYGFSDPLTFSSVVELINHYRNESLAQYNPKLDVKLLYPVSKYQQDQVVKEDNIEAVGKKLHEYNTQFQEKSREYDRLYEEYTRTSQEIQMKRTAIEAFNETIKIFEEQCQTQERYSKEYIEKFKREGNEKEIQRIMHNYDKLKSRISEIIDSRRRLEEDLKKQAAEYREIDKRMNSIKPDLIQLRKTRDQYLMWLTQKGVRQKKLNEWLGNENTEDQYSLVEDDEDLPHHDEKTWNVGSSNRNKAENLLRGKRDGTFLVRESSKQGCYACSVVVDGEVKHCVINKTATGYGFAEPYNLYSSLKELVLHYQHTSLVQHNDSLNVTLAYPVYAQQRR

Compound | PI3KA_FL Ki | PI3KA_FL Ki (nM)
CC(=O)N(C)[C@H]1C[C@H](N2CCc3c(-c4cnc(N)nc4)nc(N4CCOCC4)nc32)C1 [Example 21] | 5.393 nM | –
CN([C@H]1C[C@H](N2CCc3c(-c4cnc(N)nc4)nc(N4CCOCC4)nc32)C1)S(C)(=O)=O [Example 22] | – | ≦0.229 nM
CC(=O)N[C@H]1C[C@@H](N2CCc3c(-c4cnc(N)nc4)nc(N4CCOCC4)nc32)C1 [Example 23] | 9.696 nM | –
Nc1ncc(-c2nc(N3CCOCC3)nc3c2CCN3[C@H]2C[C@H](O)C2)cn1 [Example 24] | 0.961 nM | –
Nc1ncc(-c2nc(N3CCOCC3)nc3c2CCN3[C@H]2CCN(C(=O)CO)C2)cn1 [Example 25] | – | ≦0.229 nM
Nc1ncc(-c2nc(N3CCOCC3)nc3c2CCN3[C@H]2CCN(S(N)(=O)=O)C2)cn1 [Example 26] | 0.423 nM | –
CNC(=O)N1CC[C@H](N2CCc3c(-c4cnc(N)nc4)nc(N4CCOCC4)nc32)C1 [Example 27] | 1.025 nM | –
COC(=O)N1CC[C@H](N2CCc3c(-c4cnc(N)nc4)nc(N4CCOCC4)nc32)C1 [Example 28] | 0.521 nM | –
CC(=O)N[C@H]1C[C@H](N2CCc3c(-c4cnc(N)nc4)nc(N4CCOCC4)nc32)C1 [Example 29] | 5.828 nM | –
C[C@H](O)C(=O)N1CC[C@H](N2CCc3c(-c4cnc(N)nc4)nc(N4CCOCC4)nc32)C1 [Example 30] | 1.188 nM | –
CC(C)[C@@H](O)C(=O)N1CC[C@H](N2CCc3c(-c4cnc(N)nc4)nc(N4CCOCC4)nc32)C1 [Example 31] | – | ≦0.229 nM
CC(C)[C@H](O)C(=O)N1CC[C@H](N2CCc3c(-c4cnc(N)nc4)nc(N4CCOCC4)nc32)C1 [Example 32] | 0.841 nM | –
CC(=O)N1CC(N2CCc3c(-c4cnc(N)nc4)nc(N4CCOCC4)nc32)C1 [Example 33] | 5.195 nM | –
CO[C@H]1CC[C@H](N2CCc3c(-c4cnc(N)nc4)nc(N4CCOCC4)nc32)CC1 [Example 36] | 19.031 nM | –
C[C@]1(O)C[C@H](N2CCc3c(-c4cnc(N)nc4)nc(N4CCOCC4)nc32)C1 [Example 39] | 0.738 nM | –
CO[C@H]1C[C@H](N2CCc3c(-c4cnc(N)nc4)nc(N4CCOCC4)nc32)C1 [Example 40] | 0.416 nM | –
C[C@@H](O)C(=O)N1CC[C@H](N2CCc3c(-c4cnc(N)nc4)nc(N4CCOCC4)nc32)C1 [Example 41] | 1.376 nM | –
CC(=O)N[C@H]1C(C)(C)[C@@H](N2CCc3c(-c4cnc(N)nc4)nc(N4CCOCC4)nc32)C1(C)C [Example 42] | 7.677 nM | –
Nc1ncc(-c2nc(N3CCOCC3)nc3c2CCN3[C@H]2CCN(C=O)C2)cn1 [Example 43] | 1.310 nM | –
C[C@]1(O)C[C@@H](N2CCc3c(-c4cnc(N)nc4)nc(N4CCOCC4)nc32)C1 [Example 44] | 1.965 nM | –
Nc1ncc(-c2nc(N3CCOCC3)nc3c2CCN3[C@H]2CCCOC2)cn1 [Example 47] | 3.320 nM | –
Nc1ncc(-c2nc(N3CCOCC3)nc3c2CCN3[C@@H]2CCCOC2)cn1 [Example 48] | 3.543 nM | –
CN([C@H]1C[C@@H](N2CCc3c(-c4cnc(N)nc4)nc(N4CCOCC4)nc32)C1)S(C)(=O)=O [Example 49] | 0.722 nM | –
CC(=O)N[C@@H]1CC[C@H]1N1CCc2c(-c3cnc(N)nc3)nc(N3CCOCC3)nc21 [Example 50] | 18.596 nM | –
CC(=O)N1C[C@@H](N2CCc3c(-c4cnc(N)nc4)nc(N4CCOCC4)nc32)[C@@H](C)C1 [Example 52] | 2.799 nM | –
Nc1ncc(-c2nc(N3CCOCC3)nc3c2CCN3[C@H]2C[C@H](C(N)=O)C2)cn1 [Example 53] | 0.774 nM | –

Compound | PI3KA_FL Ki | PI3KA_FL Ki (nM)
CC(=O)N1CCC[C@H](N2CCc3c(-c4cnc(N)nc4)nc(N4CCOCC4)nc32)C1 [Example 54] | 8.634 nM | –
CC(=O)N1CCC[C@@H](N2CCc3c(-c4cnc(N)nc4)nc(N4CCOCC4)nc32)C1 [Example 55] | 3.904 nM | –
CC(=O)N1C[C@H](C(F)F)[C@H](N2CCc3c(-c4cnc(N)nc4)nc(N4CCOCC4)nc32)C1 [Example 56] | 35.745 nM | –
NC(=O)N1CC[C@H](N2CCc3c(-c4cnc(N)nc4)nc(N4CCOCC4)nc32)C1 [Example 58] | 0.794 nM | –
CC(=O)N1C[C@@H](C(F)F)[C@@H](N2CCc3c(-c4cnc(N)nc4)nc(N4CCOCC4)nc32)C1 [Example 60] | 27.752 nM | –
Nc1ncc(-c2nc(N3CCOCC3)nc3c2CCN3C2CN(C=O)C2)cn1 [Example 62] | 0.888 nM | –
CC(=O)N1C[C@@H](N2CCc3c(-c4cnc(N)nc4)nc(N4CCOCC4)nc32)[C@H](C(F)F)C1 [Example 63] | 6.612 nM | –
Nc1ncc(-c2nc(N3CCOCC3)nc3c2CCN3[C@H]2C[C@@H](F)C2)cn1 [Example 64] | 0.508 nM | –
Nc1ncc(-c2nc(N3CCOCC3)nc3c2CCN3[C@H]2C[C@H](F)C2)cn1 [Example 65] | – | ≦0.229 nM
CC(=O)N1C[C@@H](C)[C@@H](N2CCc3c(-c4cnc(N)nc4)nc(N4CCOCC4)nc32)C1 [Example 68] | 9.393 nM | –
CC(=O)N[C@H]1CC[C@@H]1N1CCc2c(-c3cnc(N)nc3)nc(N3CCOCC3)nc21 [Example 70] | 4.601 nM | –
CC(=O)N1C[C@H](C(F)F)[C@@H](N2CCc3c(-c4cnc(N)nc4)nc(N4CCOCC4)nc32)C1 [Example 71] | 8.899 nM | –
Nc1ncc(-c2nc(N3CCOCC3)nc3c2CCN3[C@@H]2CCNC(=O)C2)cn1 [Example 77] | 8.025 nM | –
Nc1ncc(-c2nc(N3CCOCC3)nc3c2CCN3[C@H]2CCNC(=O)C2)cn1 [Example 78] | 14.681 nM | –
CS(=O)(=O)N1CC[C@@H](N2CCc3c(-c4cnc(N)nc4)nc(N4CCOCC4)nc32)C1 [Example 80] | 1.247 nM | –
CNS(=O)(=O)N1CC[C@@H](N2CCc3c(-c4cnc(N)nc4)nc(N4CCOCC4)nc32)C1 [Example 81] | 0.788 nM | –
C[C@H]1COCCN1c1nc(-c2cnc(N)nc2)c2c(n1)N([C@@H]1CCN(S(C)(=O)=O)C1)CC2 [Example 83] | 0.761 nM | –
Nc1ncc(-c2nc(N3CCOCC3)nc3c2CCN3[C@@H]2CCN(S(N)(=O)=O)C2)cn1 [Example 84] | 3.507 nM | –
NC(=O)N1CC(N2CCc3c(-c4cnc(N)nc4)nc(N4CCOCC4)nc32)C1 [Example 86] | 3.673 nM | –
C[C@H]1COCCN1c1nc(-c2cnc(N)nc2)c2c(n1)N(C1CC(F)(F)C1)CC2 [Example 87] | 0.462 nM | –
C[C@H]1COCCN1c1nc(-c2cnc(N)nc2)c2c(n1)N([C@H]1C[C@H](N(C)S(C)(=O)=O)C1)CC2 [Example 90] | 0.403 nM | –
CNS(=O)(=O)N1CCC[C@H](N2CCc3c(-c4cnc(N)nc4)nc(N4CCOCC4)nc32)C1 [Example 91] | 1.472 nM | –
CC(C)[C@@H](O)C(=O)N(C)[C@H]1C[C@H](N2CCc3c(-c4cnc(N)nc4)nc(N4CCOC[C@@H]4C)nc32)C1 [Example 94] | 2.371 nM | –
CC(=O)N1CC[C@H](N2CCc3c(-c4cnc(N)nc4)nc(N4CCOC[C@@H]4C)nc32)C1 [Example 96] | 2.093 nM | –
CNS(=O)(=O)N1CCC[C@@H](N2CCc3c(-c4cnc(N)nc4)nc(N4CCOCC4)nc32)C1 [Example 97] | 3.632 nM | –

Reference: US9260439B2, “Dihydropyrrolopyrimidine derivatives” (PFIZER INC., priority 2014, dated 2016)
